# Reference: patent publication US9512168B2, “Compound, composition and method for treating and/or ameoliorating kidney disease” (Trineo Biotechnology Co. LTD., priority 2014, dated 2016)
# Assays:
# [1] = tested on: MDCK cells; assay: Cisplatin induced in vitro kidney cell apoptosis (mitochondria membrane potential, DiOC6 staining); format: cell-based, canine; details: FIG. 1A
# Description: Madin-Darby canine kidney (MDCK) cells (1.5×10^5 cells/mL) were cultured and maintained in Dulbecco's modified Eagle medium (DMEM) supplemented with 10% fetal bovine serum (FBS), 100 units/mL penicillin, […] streptomycin, 2 mM L-glutamine, non-essential amino acids and sodium pyruvate, and maintained in 5% CO2 at 37° C. until reached 80% confluence, then were subject to cell passages.
# MDCK cells were cultured in according to procedures described in the “Materials and Methods” section. To start the experiment, MDCK cells were first incubated with 50 μM cisplatin for 4 hrs, then various concentrations of the compound of formula (I) ([…] or 100 μg/mL) or the YKII-10 composition of example 1.2 (25 to 100 μg/mL) were given to cisplatin-treated cells and further incubated for another 24 hrs. Mitochondria membrane potentials were then measured by staining the live cells with fluorescent dyes (e.g., 50 nM DiOC6), in which 50 nM DiOC6 were added to cells and incubated at 37° C. for 30 min. The cells were then washed twice with phosphate buffer solution before subjecting to microscopy analysis using the inverted fluorescent microscope. […] Results are illustrated in FIGS. 1A and 1B.
# [2] = tested on: Blb/c mice; assay: Lipopolysaccharide (LPS) induced in vivo kidney inflammation, urine protein; details: oral 100 mg/Kg; LPS 2.5 mg/Kg/day i.p. for 5 days; urine on day 5 and day 10; FIG. 3
# Description: Blb/c mice were kept in pathogen-free environment under 12:12 light-dark cycle with food (laboratory rodent diet 5001 purchased from PMI Nutrition International Inc. MO, USA) and water (i.e., distilled water) provided ad libitum, ambient temperature and relative humidity were respectively set at 22±3° C. and 50±20%. All procedures involving animal studies of the present disclose e comply with the “Guideline for the Care and Use of Laboratory Animals” issued by The Chinese-Taipei Society of Laboratory Animal Sciences.
# In this example, to evaluate the therapeutic or prophylactic function of the composition of example 1.2, animals were first injected intraperitoneally with lipopolysaccharide (LPS) to induce in vivo kidney inflammation before being subject to the treatment of the composition of example 1.2.
# Blb/c mice (6 weeks old) were randomly assigned to two groups, and injected intraperitoneally with lipopolysaccharide (LPS, 2.5 mg/Kg/day) for 5 consecutive days so as to induce kidney inflammation. […] Urine samples were respectively collected on the fifth and the tenth day after the experiment started, and analyzed for the level of urine protein therein. […]
structure (smiles),measurement,setting,value
C[C@H](CCC(=O)O)[C@H]1C[C@H](O)[C@@]2(C)C3=C(C(=O)C[C@]12C)[C@@]1(C)CCC(=O)C(C)(C)[C@@H]1C[C@@H]3O [compound of formula (I)],reversal of cisplatin-induced apoptosis of MDCK cell,[1]; 50 μg/mL or 100 μg/mL for 24 hrs after 50 μM cisplatin for 4 hrs,capable of reversing
same,recovery on the membrane potential,"[1]; 100 μg/mL for 24 hrs after 50 μM cisplatin for 4 hrs, MDCK cells",about 80%
same,urine protein level,[2],effective in reducing
